# Measured values published in PMC4777244, “Activation of transient receptor potential ankyrin 1 induces CGRP release from spinal cord synaptosomes” (Pharmacology Research & Perspectives, 2015).
# Several values for one entry are separate records, joined by “and”; a condition that tells them apart may be missing. Identical values can stand only once. Entries after “also recorded” stand apart in the source; their conditions may differ. Counter-ions that a name gives are not always drawn. Like-named read-outs stand apart in the source and are kept apart here.
# What was measured:
# TRPA1 = molecular target: T1, TRPA1 (Rattus norvegicus, UniProt Q6RI86); assay: cell-based
# T1 construct: TRPA1 natively expressed on the central terminals of dorsal root ganglion neurons; from tissue; host or cells: lumbar spinal cord homogenate (synaptosomes) of adult male Sprague Dawley rats
# T1 sequence (Q6RI86 whole entry): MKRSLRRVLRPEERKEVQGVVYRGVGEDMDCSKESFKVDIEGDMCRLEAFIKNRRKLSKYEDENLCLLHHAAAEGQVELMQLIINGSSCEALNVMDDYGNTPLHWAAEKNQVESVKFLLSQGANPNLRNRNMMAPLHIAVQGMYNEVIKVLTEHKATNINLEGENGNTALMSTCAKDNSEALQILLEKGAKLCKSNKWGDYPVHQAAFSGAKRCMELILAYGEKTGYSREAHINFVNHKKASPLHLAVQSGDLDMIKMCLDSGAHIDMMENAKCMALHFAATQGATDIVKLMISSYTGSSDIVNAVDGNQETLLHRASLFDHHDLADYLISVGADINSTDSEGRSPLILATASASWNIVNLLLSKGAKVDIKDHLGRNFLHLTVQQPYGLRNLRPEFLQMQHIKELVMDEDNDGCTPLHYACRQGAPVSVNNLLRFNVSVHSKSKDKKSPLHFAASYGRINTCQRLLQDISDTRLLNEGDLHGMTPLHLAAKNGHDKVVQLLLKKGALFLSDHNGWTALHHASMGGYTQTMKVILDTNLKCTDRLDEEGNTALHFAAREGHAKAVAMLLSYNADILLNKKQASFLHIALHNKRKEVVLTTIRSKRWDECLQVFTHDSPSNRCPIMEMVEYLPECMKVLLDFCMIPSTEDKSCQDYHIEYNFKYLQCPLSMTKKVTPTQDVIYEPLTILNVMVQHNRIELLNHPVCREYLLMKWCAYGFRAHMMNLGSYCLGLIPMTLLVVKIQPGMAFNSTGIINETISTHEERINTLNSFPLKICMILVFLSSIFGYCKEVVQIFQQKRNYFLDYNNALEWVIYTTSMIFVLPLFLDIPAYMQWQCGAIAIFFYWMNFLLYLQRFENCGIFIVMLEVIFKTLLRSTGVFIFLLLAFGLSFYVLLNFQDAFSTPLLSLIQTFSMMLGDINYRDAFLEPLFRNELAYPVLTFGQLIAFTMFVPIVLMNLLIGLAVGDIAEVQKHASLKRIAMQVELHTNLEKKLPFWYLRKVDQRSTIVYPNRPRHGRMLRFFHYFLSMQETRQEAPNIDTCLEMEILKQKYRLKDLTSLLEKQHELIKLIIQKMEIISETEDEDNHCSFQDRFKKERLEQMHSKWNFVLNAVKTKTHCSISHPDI
# [1] = tested on: recombinantly‐expressed TRPA1 channels; settings: cited from earlier work
# spinal cord synaptosomes = assay: KCl (depolarization)-evoked CGRP release from rat spinal cord homogenate, ELISA; type: cell-based; settings: for CGRP release over basal release: n = 3
# [2] = tested on: voltage‐gated calcium channels (VGCCs); type: cell-based, rat
# [3] = tested on: voltage‐gated calcium channels (VGCCs); type: cell-based, rat; remark: listed apart in the source
# T‐type VGCCs = tested on: T‐type VGCCs; parameters: method as in Martin et al. 2000; settings: ref Martin et al. 2000; cited from earlier work
# TRPM3 = tested on: TRPM3; parameters: method as in Wagner et al. 2008; settings: ref Wagner et al. 2008; read-out: EC50 for activation of TRPM3; cited from earlier work
compound,measurement,setting,value
"CCCCCC(O)/C=C/C=O (stereo not shown) [4‐HNE, 4‐hydroxynonenal]",EC50,TRPA1; read-out: EC50 of CGRP release,17.4 ± 0.68 µM
"CCCCCC(=O)C=CC=O [4‐ONE, 4‐oxo‐2‐nonenal]",EC50,"TRPA1; rat spinal cord homogenate, ELISA, mean ± SEM, read-out: EC50 of CGRP release",63.8 µM and ~64 µM
same,EC50,"[1]; ref Taylor‐Clark et al. 2008, read-out: previously reported EC50 value",~2 µM
"C=CCN=C=S [AITC, allyl‐isothiocyanate]",AITC-induced CGRP release,TRPA1,42 ± 11 % of 40 mmol/L KCl‐evoked release
CC(=C\c1ccc(Cl)cc1)/C(C)=N/O [AP18],AITC-induced CGRP release in the presence of AP18,"TRPA1; 50 μmol/L AP18, 100 μmol/L AITC, dorsal homogenate",8 ± 5 % of 40 mmol/L KCl‐evoked release
same,cinnamaldehyde-evoked CGRP release in the presence of AP18,"TRPA1; 50 μmol/L AP18, 100 μmol/L cinnamaldehyde, dorsal homogenate",−1 ± 3 % of 40 mmol/L KCl‐evoked release
same,effect on CGRP release induced by 40 mmol/L and 60 mmol/L KCl,spinal cord synaptosomes; 50 μmol/L AP18,no effect
[Cl-].[K+] [KCl],"CGRP release evoked by 40 mmol/L KCl, absence of morphine","spinal cord synaptosomes; 40 mmol/L KCl, dorsal homogenate, morphine experiment, n = 4",77 ± 7 % over basal release
same,CGRP release over basal release,"spinal cord synaptosomes; 40 mmol/L KCl, dorsal spinal cord homogenate, dorsal/ventral experiment",67 ± 9 % over basal release
same,CGRP release over basal release,"spinal cord synaptosomes; 40 mmol/L KCl, ventral spinal cord homogenate",6 ± 4 % over basal release
same,"CGRP release evoked by 60 mmol/L KCl, absence of morphine","spinal cord synaptosomes; 60 mmol/L KCl, dorsal homogenate, morphine experiment, n = 4",131 ± 17 % over basal release
O=C/C=C/c1ccccc1 [cinnamaldehyde],cinnamaldehyde-evoked CGRP release,"TRPA1; 100 μmol/L cinnamaldehyde, dorsal homogenate, absence of AP18",39 ± 8 % of 40 mmol/L KCl‐evoked release
same,CGRP release over basal release,"TRPA1; 100 μmol/L cinnamaldehyde, dorsal spinal cord homogenate, n = 3",14 ± 5 % over basal release
same,CGRP release over basal release,"TRPA1; 100 μmol/L cinnamaldehyde, ventral spinal cord homogenate, n = 3",0 ± 1 % over basal release
same,response to 1000 μmol/L cinnamaldehyde in Ca2+ free solutions as % of the response in Ca2+ containing solutions,"TRPA1; 1000 μmol/L, Ca2+ free, 1 mmol/L EGTA, mean ± SEM, n = 3",18 ± 6%
same,EC50,"TRPA1; EC50 of CGRP release, rat spinal cord homogenate, ELISA, mean ± SEM",54.8 ± 5.84 µM
COCC(=O)O[C@]1(CCN(C)CCCc2nc3ccccc3[nH]2)CCc2cc(F)ccc2[C@@H]1C(C)C [mibefradil dihydrochloride],decrease of high potassium-induced CGRP release,"[2]; 40 mmol/L KCl, mibefradil dihydrochloride 10 μmol/L, cocktail",~ 50%
same,effect on 40 mmol/L KCl-induced CGRP release,"[2]; nifedipine 5 μmol/L, ω‐conotoxin MVIIC 200 nmol/L, mibefradil dihydrochloride 10 μmol/L, cocktail",significantly decreased
same,depolarization-induced CGRP release in the presence of inhibitor,"[2]; ω‐conotoxin MVIIC 1 μmol/L, mibefradil dihydrochloride 10 μmol/L, cocktail (5 μmol/L nifedipine, 1 μmol/L ω‐conotoxin MVIIC, 10 μmol/L mibefradil)",48 ± 6 % of control 40 mmol/L KCl‐evoked release
same,effect on 100 μmol/L cinnamaldehyde-induced CGRP release,"[3]; nifedipine 5 μmol/L, mibefradil dihydrochloride 10 μmol/L, ω‐conotoxin MVIIC 200 nmol/L, ANOVA",not significantly altered; also recorded: not significantly affected
same,greater affinity for T-type VGCCs than for L-type VGCC,T‐type VGCCs,12–13 fold
COC(=O)C1=C(C)NC(C)=C(C(=O)OC)C1c1ccccc1[N+](=O)[O-] [nifedipine],EC50,"[1]; ref Fajardo et al. 2008, read-out: EC50 for activation of recombinantly-expressed TRPA1 channels",~0.4 µM
same,EC50,TRPM3,~30 µM
ω‐conotoxin MVIIC,depolarization-induced CGRP release in the presence of inhibitor,[2],73 ± 8 % of control 40 mmol/L KCl‐evoked release
same,effect on 100 μmol/L cinnamaldehyde-induced CGRP release,[3],not significantly altered; also recorded: not significantly affected
